One assay concerns RSV A2 strain. Nature of the assay: In vitro CPE (CytoPathic Effect) inhibition effect evaluation test, RSV type A. The class given is cell-based. The settings on record: human respiratory syncytial virus. The procedure, abridged: (§1)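 EC50 is the concentration giving 50% inhibition of virus-induced cytopathic effect, fitted by nonlinear regression from CellTiter-Glo 2.0 viability. Compounds in 3-fold series were co-incubated at 37 °C with HEp-2 cells and RSV: A2 strain for 4 days, B (Wash/18537) for 5 days; uninfected wells served as control.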
A general note: Damage to the host cells serves as the signal in cytopathic effect assays.

Assay [1] has as its system RSV B (Wash/18537 strain). Kind of assay: In vitro CPE (CytoPathic Effect) inhibition effect evaluation test, RSV type B. The class given is cell-based. Particulars: human respiratory syncytial virus. The procedure, abridged: as §1
Setting [2] is: inhibitory effect against RSV type A (RSV A2 strain), HEp-2 cells, CPE inhibition, read-out: EC50.
Setting [3] is: inhibitory effect against RSV type B, CPE inhibition, read-out: EC50.
[4] abbreviates: HEp-2, 96 h, read-out: EC50, inhibitory effect against RSV type A (CPE inhibition).
Setting [5] is: HEp-2, 120 h, HEp-2 cells, RSV B (Wash/18537 strain), 5 days, CellTiter-Glo, read-out: EC50, inhibitory effect against RSV type B (CPE inhibition).

Like-named read-outs stand apart in the source and are kept apart here. Where only a bound is given, the exact number is not on record here.

For orientation: EC50 means the concentration at which the effect is half-maximal.

For the compound `COC[C@@H](C)n1cc(-c2ncc(C(=O)NC3(C(=O)O)C4CC5CC(C4)CC3C5)c(C(F)(F)F)n2)c2ccc(O[C@H]3CC[C@@H](N4CC(F)(F)C4)CC3)cc21` (stereo partly drawn) [Compound I-585], the EC50 (in the assay on RSV A2 strain (setting [2]); in assay [1] (setting [3])) was below 10 nM in each case.

`CC(F)(F)c1nc(N2CC3(CCOCC3)c3cc(O[C@H]4CC[C@@H](N5CC(F)(F)C5)CC4)ccc32)ncc1C(=O)NC1(C(=O)O)C2CC3CC(C2)CC1C3` (stereo partly drawn) [Compound I-586]: the EC50 (with RSV A2 strain (setting [2]); in assay [1] (setting [3])) was below 10 nM in each case.

Regarding `CCC1(CC)CN(c2ncc(C(=O)NC3(C(=O)O)C4CC5CC(C4)CC3C5)c(C(C)(F)F)n2)c2ccc(OC3CCN(c4ncc(F)cn4)CC3)cc21` (stereo not drawn) [Compound I-588], the EC50 (with RSV A2 strain (setting [2]); in assay [1] (setting [3])) was below 10 nM each time.

Regarding `CCC1(CC)CN(c2ncc(C(=O)NC3(C(=O)O)C4CC5CC(C4)CC3C5)c(C(C)(F)F)n2)c2ccc(OC3CCN(CC(F)(F)F)CC3)cc21` (stereo not drawn) [Compound I-589], the EC50 (in the assay with RSV A2 strain (setting [2]); in assay [1] (setting [3])) was below 10 nM in each case.

As to `CCC1(CC)CN(c2ncc(C(=O)NC3(C(=O)O)C4CC5CC(C4)CC3C5)c(C(C)(F)F)n2)c2ccc(O[C@H]3CC[C@H](N4CC(F)(F)C4)CC3)cc21` (stereo partly drawn) [Compound I-591], the EC50 with RSV A2 strain (setting [4]) worked out at 0.61 nM; in assay [1] (setting [5]), 2.2 nM.

Turning to `CC(F)(F)c1nc(N2CC3(CCOCC3)c3cc(OC4CN(CC(F)(F)F)C4)ccc32)ncc1C(=O)NC1(C(=O)O)C2CC3CC(C2)CC1C3` (stereo not drawn) [Compound I-592], the EC50 (in the assay on RSV A2 strain (setting [2]); in assay [1] (setting [3])) was below 10 nM throughout.

For the compound `CC(F)(F)c1nc(N2CC3(CCOCC3)c3cc(OC4CCN(C5CS(=O)(=O)C5)CC4)ccc32)ncc1C(=O)NC1(C(=O)O)C2CC3CC(C2)CC1C3` (stereo not drawn) [Compound I-593], the EC50 (in the assay with RSV A2 strain (setting [2]); in assay [1] (setting [3])) was below 10 nM each time.

Turning to `CC(F)(F)c1nc(N2CC3(CCOCC3)c3cc(O[C@H]4CC[C@H](N5CC(F)(F)C5)CC4)ncc32)ncc1C(=O)NC1(C(=O)O)C2CC3CC(C2)CC1C3` (stereo partly drawn) [Compound I-594], the results for the EC50 (in the assay with RSV A2 strain (setting [4]); in assay [1] (setting [5])) were 0.38 nM and 4.2 nM, respectively.

In the case of `O=C(NC1(C(=O)O)C2CC3CC(C2)CC1C3)c1cnc(N2CC3(CCCCC3)c3cc(O[C@H]4CC[C@H](N5CC(F)(F)C5)CC4)ncc32)nc1C(F)(F)F` (stereo partly drawn) [Compound I-595], the EC50 (in the assay on RSV A2 strain (setting [2]); in assay [1] (setting [3])) was below 10 nM throughout.

Consider `CC(F)(F)c1nc(N2CC3(CCOCC3)c3cc(-n4ncc5c4CCN(CC(F)(F)F)C5)ccc32)ncc1C(=O)NC1(C(=O)O)C2CC3CC(C2)CC1C3` (stereo not drawn) [Compound I-596], for which the EC50 (in the assay on RSV A2 strain (setting [2]); in assay [1] (setting [3])) was below 10 nM in each case.

`CC(F)(F)c1nc(N2CC3(CC3)c3cc(O[C@H]4CC[C@H](N5CC(F)(F)C5)CC4)ccc32)ncc1C(=O)NC1(C(=O)O)C2CC3CC(C2)CC1C3` (stereo partly drawn) [Compound I-597]: the concentration for a half-maximal effect (EC50) (in the assay on RSV A2 strain (setting [2]); in assay [1] (setting [3])) was below 10 nM each time.

Take `CC(F)(F)c1nc(N2CC3(CCCC3)c3cc(O[C@@H]4CCN(CC(F)(F)F)C4)ccc32)ncc1C(=O)NC1(C(=O)O)C2CC3CC(C2)CC1C3` (stereo partly drawn) [Compound I-598]: the EC50 (in the assay on RSV A2 strain (setting [2]); in assay [1] (setting [3])) was below 10 nM in each case.

With `CC(F)(F)c1nc(N2CC3(CCOCC3)c3cc(OC4CCN(c5ncc(F)cn5)CC4)ncc32)ncc1C(=O)N[C@]1(C(=O)O)[C@@H]2CC3C[C@H]1C[C@@](F)(C3)C2` [Compound I-599], the EC50 (with RSV A2 strain (setting [2]); in assay [1] (setting [3])) was below 10 nM in each case.

In the case of `CC(F)(F)c1nc(N2CC3(CCCCC3)c3cc(OC4CCN(c5ncc(F)cn5)CC4)ncc32)ncc1C(=O)N[C@]1(C(=O)O)[C@@H]2CC3C[C@H]1C[C@@](F)(C3)C2` [Compound I-600], the EC50 (in the assay on RSV A2 strain (setting [2]); in assay [1] (setting [3])) was below 10 nM throughout.

For `CC(F)(F)c1nc(N2CC3(CCOCC3)c3cc(O[C@H]4CC[C@H](N5CC(F)(F)C5)CC4)ncc32)ncc1C(=O)N[C@]1(C(=O)O)[C@@H]2CC3C[C@H]1C[C@@](F)(C3)C2` [Compound I-601], the EC50 (in the assay on RSV A2 strain (setting [2]); in assay [1] (setting [3])) was below 10 nM each time.

Consider `CC(F)(F)c1nc(N2CC3(CCOCC3)c3cc(-n4ncc5c4CCN(CC(F)(F)F)C5)ncc32)ncc1C(=O)NC1(C(=O)O)C2CC3CC(C2)CC1C3` (stereo not drawn) [Compound I-602], for which the EC50 (in the assay on RSV A2 strain (setting [2]); in assay [1] (setting [3])) was below 10 nM each time.

On to `CC(F)(F)c1nc(N2CC3(CC3)c3cc(OC4CCN(c5ncc(F)cn5)CC4)ccc32)ncc1C(=O)NC1(C(=O)O)C2CC3CC(C2)CC1C3` (stereo not drawn) [Compound I-603], for which the EC50 (in the assay on RSV A2 strain (setting [2]); in assay [1] (setting [3])) was below 10 nM throughout.

On to `CC(F)(F)c1nc(N2CC3(CC3)c3cc(OC4CCN(CC(F)(F)F)CC4)ccc32)ncc1C(=O)NC1(C(=O)O)C2CC3CC(C2)CC1C3` (stereo not drawn) [Compound I-604], for which the EC50 (with RSV A2 strain (setting [2]); in assay [1] (setting [3])) was below 10 nM each time.

Regarding `CC(F)(F)c1nc(N2CC3(CCOCC3)c3cc(OC4CCN(CC(F)(F)F)CC4)ncc32)ncc1C(=O)N[C@]1(C(=O)O)[C@@H]2CC3C[C@H]1C[C@@](F)(C3)C2` [Compound I-605], the EC50 (in the assay with RSV A2 strain (setting [2]); in assay [1] (setting [3])) was below 10 nM throughout.

`O=C(NC1(C(=O)O)C2CC3CC(C2)CC1C3)c1cnc(N2CC3(CCCCC3)c3cc(-n4ncc5c4CCN(CC(F)(F)F)C5)ccc32)nc1C(F)(F)F` (stereo not drawn) [Compound I-606]: the EC50 (with RSV A2 strain (setting [2]); in assay [1] (setting [3])) was below 10 nM each time.

On to `CC(F)(F)c1nc(N2CC3(CCCCC3)c3cc(-n4ncc5c4CCN(CC(F)(F)F)C5)ccc32)ncc1C(=O)NC1(C(=O)O)C2CC3CC(C2)CC1C3` (stereo not drawn) [Compound I-607], for which the EC50 (in the assay on RSV A2 strain (setting [2]); in assay [1] (setting [3])) was below 10 nM throughout.

Take `CC(F)(F)c1nc(N2CC3(CCCCC3)c3cc(C(=O)N4CCN(CC(F)(F)F)CC4)ccc32)ncc1C(=O)NC1(C(=O)O)C2CC3CC(C2)CC1C3` (stereo not drawn) [Compound I-608]: the EC50 (in the assay with RSV A2 strain (setting [2]); in assay [1] (setting [3])) was below 10 nM throughout.

For the compound `COC1CCN(C(=O)c2ccc3c(c2)C2(CCCCC2)CN3c2ncc(C(=O)NC3(C(=O)O)C4CC5CC(C4)CC3C5)c(C(C)(F)F)n2)CC1` (stereo not drawn) [Compound I-609], the EC50 (with RSV A2 strain (setting [2]); in assay [1] (setting [3])) was below 10 nM throughout.

Take `CC(F)(F)c1nc(N2CC3(CCCCC3)c3cc(C(=O)N4CCC(C(F)F)CC4)ccc32)ncc1C(=O)NC1(C(=O)O)C2CC3CC(C2)CC1C3` (stereo not drawn) [Compound I-610]: the EC50 (in the assay with RSV A2 strain (setting [2]); in assay [1] (setting [3])) was below 10 nM in each case.

Consider `CC(F)(F)c1nc(-c2cn(C3CCC(F)(F)CC3)c3cc(O[C@H]4CC[C@H](N5CC(F)(F)C5)CC4)ccc23)ncc1C(=O)N[C@]1(C(=O)O)[C@@H]2CC3C[C@H]1C[C@@](F)(C3)C2` [Compound I-611], for which the EC50 (with RSV A2 strain (setting [2]); in assay [1] (setting [3])) was below 10 nM throughout.

For `CC(F)(F)CN1CCC(Oc2ccc3c(-c4ncc(C(=O)NC5(C(=O)O)C6CC7CC(C6)CC5C7)c(C(C)(F)F)n4)cn(C4CCOCC4)c3c2)CC1` (stereo not drawn) [Compound I-612], the EC50 (in the assay on RSV A2 strain (setting [2]); in assay [1] (setting [3])) was below 10 nM in each case.

On to `CC[C@@H](C)n1cc(-c2ncc(C(=O)NC3(C(=O)O)C4CC5CC(C4)CC3C5)c(C(F)(F)F)n2)c2ccc(O[C@H]3CC[C@H](N4CC(F)(F)C4)CC3)cc21` (stereo partly drawn) [Compound I-613], for which the EC50 (in the assay with RSV A2 strain (setting [2]); in assay [1] (setting [3])) was below 10 nM in each case.

Turning to `O=C(NC1(C(=O)O)C2CC3CC(C2)CC1C3)c1cnc(-c2cn(C3CCOCC3)c3cc(O[C@H]4CC[C@@H](N5CC(F)(F)C5)CC4)ccc23)nc1C(F)(F)F` (stereo partly drawn) [Compound I-614], the EC50 (with RSV A2 strain (setting [2]); in assay [1] (setting [3])) was below 10 nM throughout.

For the compound `COCC(C)n1cc(-c2ncc(C(=O)NC3(C(=O)O)C4CC5CC(C4)CC3C5)c(C(C)(F)F)n2)c2ccc(OC3CCN(CC(C)(F)F)CC3)cc21` (stereo not drawn) [Compound I-615], the EC50 (in the assay with RSV A2 strain (setting [2]); in assay [1] (setting [3])) was below 10 nM in each case.

In the case of `CC(C)n1cc(-c2ncc(C(=O)NC3(C(=O)O)C4CC5CC(C4)CC3C5)c(C(F)(F)F)n2)c2ccc(O[C@H]3CC[C@H](N4CC(F)(F)C4)CC3)cc21` (stereo partly drawn) [Compound I-616], the EC50 (in the assay with RSV A2 strain (setting [2]); in assay [1] (setting [3])) was below 10 nM in each case.

On to `CCC(C)n1cc(-c2ncc(C(=O)NC3(C(=O)O)C4CC5CC(C4)CC3C5)c(C(F)(F)F)n2)c2ccc(O[C@H]3CC[C@H](N4CC(F)(F)C4)CC3)cc21` (stereo partly drawn) [Compound I-617], for which the EC50 (in the assay on RSV A2 strain (setting [2]); in assay [1] (setting [3])) was below 10 nM in each case.

Turning to `CC(C)n1cc(-c2ncc(C(=O)NC3(C(=O)O)C4CC5CC(C4)CC3C5)c(C(C)(F)F)n2)c2ccc(O[C@H]3CC[C@H](N4CC(F)(F)C4)CC3)cc21` (stereo partly drawn) [Compound I-618], the EC50 (in the assay with RSV A2 strain (setting [2]); in assay [1] (setting [3])) was below 10 nM throughout.

Consider `COC[C@@H](C)n1cc(-c2ncc(C(=O)NC3(C(=O)O)C4CC5CC(C4)CC3C5)c(C(C)(F)F)n2)c2ccc(OC3CC(N4CC(F)(F)C4)C3)cc21` (stereo partly drawn) [Compound I-620], for which the EC50 (in the assay on RSV A2 strain (setting [2]); in assay [1] (setting [3])) was below 10 nM in each case.

Source of the values: patent US12528790B2, “Amide derivative having antiviral activity” (Shionogi & Co., Ltd., priority 2020, dated 2026).
